Experimental data published in ChEMBL document CHEMBL3351796, “Discovery of potent and selective sirtuin 2 (SIRT2) inhibitors using a fragment-based approach” (J Med Chem, 2014).

Tests used:
[1] = molecular target: T1, NAD-dependent protein deacetylase sirtuin-1 (Homo sapiens) (UniProt Q96EB6); experiment: Inhibition of full length human SIRT1 expressed in Escherichia coli BL21 (DE3) cells at 100 uM using fluorogenic 7-amino-4-methylcoumarin (AMC)-labeled peptide by fluorescence assay
T1 sequence (whole entry): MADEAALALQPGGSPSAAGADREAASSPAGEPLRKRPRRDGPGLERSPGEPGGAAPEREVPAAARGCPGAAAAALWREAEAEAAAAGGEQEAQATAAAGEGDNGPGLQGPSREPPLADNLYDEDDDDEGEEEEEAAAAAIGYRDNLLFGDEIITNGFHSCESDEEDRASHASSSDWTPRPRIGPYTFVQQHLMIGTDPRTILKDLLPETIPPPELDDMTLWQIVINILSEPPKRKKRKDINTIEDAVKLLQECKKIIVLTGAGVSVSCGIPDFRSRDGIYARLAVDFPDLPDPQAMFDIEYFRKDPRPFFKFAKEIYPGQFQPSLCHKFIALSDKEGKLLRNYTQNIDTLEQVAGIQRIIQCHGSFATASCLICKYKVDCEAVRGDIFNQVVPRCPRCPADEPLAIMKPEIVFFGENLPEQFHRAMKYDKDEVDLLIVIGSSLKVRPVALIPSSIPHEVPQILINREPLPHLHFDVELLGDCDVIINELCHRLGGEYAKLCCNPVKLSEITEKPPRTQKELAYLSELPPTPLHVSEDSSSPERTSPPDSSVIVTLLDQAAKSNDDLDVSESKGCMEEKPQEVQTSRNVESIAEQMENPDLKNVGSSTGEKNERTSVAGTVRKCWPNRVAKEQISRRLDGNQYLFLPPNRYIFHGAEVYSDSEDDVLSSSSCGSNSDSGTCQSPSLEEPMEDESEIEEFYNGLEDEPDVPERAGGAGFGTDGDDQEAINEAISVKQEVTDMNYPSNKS

[2] = molecular target: T2, NAD-dependent protein deacetylase sirtuin-2 (Homo sapiens) (UniProt Q8IXJ6); experiment: Inhibition of full length human SIRT2 expressed in Escherichia coli BL21 (DE3) cells at 100 uM using fluorogenic 7-amino-4-methylcoumarin (AMC)-labeled peptide by fluorescence assay
T2 sequence (whole entry): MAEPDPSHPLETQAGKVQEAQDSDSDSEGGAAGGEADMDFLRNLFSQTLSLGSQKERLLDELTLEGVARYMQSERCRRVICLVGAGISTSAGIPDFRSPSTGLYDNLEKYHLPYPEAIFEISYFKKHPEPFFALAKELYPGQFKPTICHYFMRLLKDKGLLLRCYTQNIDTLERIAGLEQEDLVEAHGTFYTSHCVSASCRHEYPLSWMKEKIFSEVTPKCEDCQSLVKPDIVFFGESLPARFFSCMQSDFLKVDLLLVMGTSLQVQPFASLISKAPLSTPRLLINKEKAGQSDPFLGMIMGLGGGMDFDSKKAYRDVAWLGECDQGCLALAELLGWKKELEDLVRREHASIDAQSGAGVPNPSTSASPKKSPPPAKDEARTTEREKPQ

[3] = molecular target: T3, NAD-dependent protein deacetylase sirtuin-3, mitochondrial (Homo sapiens) (UniProt Q9NTG7); details: BL21-DE3, 100 uM
T3 sequence (whole entry): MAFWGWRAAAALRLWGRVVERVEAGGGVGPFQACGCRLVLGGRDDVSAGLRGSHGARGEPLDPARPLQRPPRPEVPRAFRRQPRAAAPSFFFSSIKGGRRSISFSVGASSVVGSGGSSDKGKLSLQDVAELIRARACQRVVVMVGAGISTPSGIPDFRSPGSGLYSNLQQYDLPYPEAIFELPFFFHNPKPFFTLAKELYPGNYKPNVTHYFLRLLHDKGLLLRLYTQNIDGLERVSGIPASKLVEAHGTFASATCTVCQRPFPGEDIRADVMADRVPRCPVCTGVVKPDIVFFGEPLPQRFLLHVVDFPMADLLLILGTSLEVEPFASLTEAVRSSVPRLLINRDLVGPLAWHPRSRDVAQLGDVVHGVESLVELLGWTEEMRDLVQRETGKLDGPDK

[4] = molecular target: T4, NAD-dependent protein deacetylase sirtuin-2 (Homo sapiens, UniProt Q8IXJ6); experiment: Inhibition of full length human SIRT2 expressed in Escherichia coli BL21 (DE3) cells using fluorogenic 7-amino-4-methylcoumarin (AMC)-labeled peptide by fluorescence assay
T4 sequence (Q8IXJ6 whole entry): T2 sequence (whole entry)

[5] = molecular target: T5, NAD-dependent protein deacetylase sirtuin-1 (Homo sapiens, UniProt Q96EB6); experiment: biochemical; assay type: cell-based, BL21-DE3
T5 sequence (Q96EB6 whole entry): T1 sequence (whole entry)
Description: Inhibition of full length human SIRT1 expressed in Escherichia coli BL21 (DE3) cells using fluorogenic 7-amino-4-methylcoumarin (AMC)-labeled peptide by fluorescence assay

[6] = molecular target: T6, NAD-dependent protein deacetylase sirtuin-3, mitochondrial (Homo sapiens, UniProt Q9NTG7); experiment: biochemical
T6 sequence (Q9NTG7 whole entry): T3 sequence (whole entry)
Description: Inhibition of catalytically active human SIRT3 (102 to 399 amino acids) expressed in Escherichia coli BL21 (DE3) cells using fluorogenic 7-amino-4-methylcoumarin (AMC)-labeled peptide by fluorescence assay

| inhibition [1] [%] | inhibition [2] [%] | inhibition [3] [%] | IC50 [4] [µM] | IC50 [5] [µM] | IC50 [6] [µM] | SMILES |
| --- | --- | --- | --- | --- | --- | --- |
| < 10 | < 10 | < 10 | – | – | – | Nc1cccc(C(=O)Nc2cccc3cc(S(=O)(=O)O)ccc23)c1 |
| 12 | < 10 | 16 | – | – | – | Cc1ccc(C(=O)Nc2cccc3cccc(S(=O)(=O)O)c23)cc1N |
| – | – | – | 0.489 | 3.82 | – | Cc1ccc(C(=O)Nc2cccc3cc(Oc4cncc(C(N)=O)c4)ccc23)cc1 |
| 35 | 66 | 35 | – | – | – | NC(=O)c1cccc(Oc2cccc3ccccc23)c1 |
| 14 | 13 | < 10 | – | – | – | Cc1ccc(C(=O)Nc2cccc3cc(S(=O)(=O)O)ccc23)cc1N |
| – | – | – | 12.1 | 26.9 | – | NC(=O)c1cncc(Sc2ccc3ccccc3c2)c1 |
| 20 | 41 | < 10 | – | – | – | NC(=O)c1ccc(Sc2ccc3ccccc3c2)cc1 |
| 17 | < 10 | 15 | – | – | – | O=C(Nc1cccc2cccc(S(=O)(=O)O)c12)c1ccccc1 |
| – | – | – | 9.8 | 30.3 | – | NC(=O)c1cncc(Sc2cccc3ccccc23)c1 |
| < 10 | < 10 | 22 | – | – | – | NC(=O)c1ccc(Nc2cccc3ccccc23)cc1 |
| 40 | 47 | 42 | – | – | – | NC(=O)c1ccc(Sc2cccc3ccccc23)nc1 |
| < 10 | 10 | 25 | – | – | – | O=C(Nc1ccc(S(=O)(=O)O)c2ccccc12)c1ccccc1 |
| < 10 | 46 | < 10 | – | – | – | NC(=O)c1cccc(Nc2cccc3ccccc23)c1 |
| 19 | 41 | 38 | – | – | – | NC(=O)c1ccc(Nc2cccc3ccccc23)nc1 |
| 13 | 22 | < 10 | – | – | – | O=C(Nc1cccc2cc(S(=O)(=O)O)ccc12)c1cccc([N+](=O)[O-])c1 |
| 19 | 38 | < 10 | – | – | – | Cc1ccc(C(=O)Nc2cccc3cc(S(=O)(=O)O)ccc23)cc1[N+](=O)[O-] |
| < 10 | 33 | 39 | – | – | – | NC(=O)c1ccc(Oc2cccc3ccccc23)nc1 |
| 26 | < 10 | < 10 | – | – | – | Cc1ccc(C(=O)Nc2cccc3cccc(S(=O)(=O)O)c23)cc1[N+](=O)[O-] |
| 31 | 61 | 44 | – | – | – | NC(=O)c1ccc(Oc2ccc3ccccc3c2)nc1 |
| < 10 | 15 | 47 | – | – | – | NC(=O)c1ccc(Nc2ccc3ccccc3c2)cc1 |
| 47 | 84 | 49 | – | – | – | NC(=O)c1cccc(Oc2ccc3ccccc3c2)c1 |
| – | – | – | 4.3 | 33.6 | – | NC(=O)c1cncc(Nc2ccc3ccccc3c2)c1 |
| – | – | – | 0.978 | 100 | – | Cc1ccc(C(=O)Nc2cccc3c(Oc4cncc(C(N)=O)c4)cccc23)cc1[N+](=O)[O-] |
| < 10 | < 10 | < 10 | – | – | – | O=C(Nc1cccc2cccc(S(=O)(=O)O)c12)c1cccc([N+](=O)[O-])c1 |
| – | – | – | 0.955 | 15.4 | – | NC(=O)c1cncc(Oc2cccc3c(NC(=O)c4ccncc4)cccc23)c1 |

| inhibition [1] [%] | inhibition [2] [%] | inhibition [3] [%] | IC50 [4] [µM] | IC50 [5] [µM] | IC50 [6] [µM] | SMILES |
| --- | --- | --- | --- | --- | --- | --- |
| – | – | – | 0.0774 | 18.7 | – | Cc1ccc(C(=O)Nc2cccc3c(Oc4cncc(C(N)=O)c4)cccc23)cc1 |
| < 10 | < 10 | 21 | – | – | – | O=C(Nc1cccc2cc(S(=O)(=O)O)ccc12)c1ccccc1 |
| – | – | – | – | 135 | – | N#C/C(=C\c1ccc(-c2cc(Cl)ccc2Cl)o1)C(=O)Nc1cccc2ncccc12 |
| – | – | – | 0.811 | 11.7 | – | NC(=O)c1cncc(Oc2ccc3c(NC(=O)c4cccc([N+](=O)[O-])c4)cccc3c2)c1 |
| < 10 | 16 | < 10 | – | – | – | NC(=O)c1ccc(Oc2ccc3ccccc3c2)cc1 |
| – | – | – | 7.57 | 4.89 | – | NC(=O)c1cncc(Oc2cccc3ccccc23)c1 |
| 12 | < 10 | < 10 | – | – | – | Nc1cccc(C(=O)Nc2cccc3cccc(S(=O)(=O)O)c23)c1 |
| < 10 | < 10 | 10 | – | – | – | Cc1ccc(C(=O)Nc2cccc3cccc(S(=O)(=O)O)c23)cc1 |
| < 10 | 65 | < 10 | – | – | – | NC(=O)c1cccc(Nc2ccc3ccccc3c2)c1 |
| 19 | 24 | 22 | – | – | – | Cc1ccc(C(=O)Nc2cccc3cc(S(=O)(=O)O)ccc23)cc1 |
| 31 | 73 | 42 | – | – | – | NC(=O)c1ccc(Sc2ccc3ccccc3c2)nc1 |
| 23 | 25 | 22 | – | – | – | Cc1ccc(C(=O)Nc2ccc(S(=O)(=O)O)c3ccccc23)cc1[N+](=O)[O-] |
| < 10 | < 10 | < 10 | – | – | – | Nc1cccc(C(=O)Nc2ccc(S(=O)(=O)O)c3ccccc23)c1 |
| – | – | – | 6.29 | 13.5 | 2.14 | NC(=O)c1cncc(Oc2ccc3ccccc3c2)c1 |
| 11 | 13 | < 10 | – | – | – | Cc1ccc(C(=O)Nc2ccc(S(=O)(=O)O)c3ccccc23)cc1N |
| < 10 | 24 | < 10 | – | – | – | NC(=O)c1ccc(Sc2cccc3ccccc23)cc1 |
| < 10 | 20 | < 10 | – | – | – | NC(=O)c1ccc(Nc2ccc3ccccc3c2)nc1 |
| – | – | – | 0.434 | 64 | – | NC(=O)c1cncc(Oc2cccc3c(NC(=O)c4cccc([N+](=O)[O-])c4)cccc23)c1 |
| – | – | – | 0.558 | 70.7 | – | NC(=O)c1cncc(Oc2cccc3c(NC(=O)c4cccnc4)cccc23)c1 |
| < 10 | 27 | 10 | – | – | – | NC(=O)c1ccc(Oc2cccc3ccccc23)cc1 |
| – | – | – | 0.869 | 0.788 | 4.37 | Cc1ccc(C(=O)Nc2cccc3cc(Oc4cncc(C(N)=O)c4)ccc23)cc1[N+](=O)[O-] |
| < 10 | 29 | 23 | – | – | – | O=C(Nc1ccc(S(=O)(=O)O)c2ccccc12)c1cccc([N+](=O)[O-])c1 |
| – | – | – | 9.7 | 40.9 | 9 | NC(=O)c1cncc(Nc2cccc3ccccc23)c1 |
| 22 | 17 | 25 | – | – | – | Cc1ccc(C(=O)Nc2ccc(S(=O)(=O)O)c3ccccc23)cc1 |
| – | – | – | 0.436 | 22.4 | – | NC(=O)c1cncc(Oc2ccc3c(NC(=O)c4ccccc4)cccc3c2)c1 |
